Assay results published in PubChem BioAssay AID1918999 (Molecular Pharmacology Branch, DTP, NCI, 2023).
pIC50: −log10 of the molar value.

Tested on: 556581-035-R-J1-PDC complex spheroid growth
Experiment: Anticancer human tumor 556581-035-R-J1-PDC patient-derived ovarian carcinoma cell line growth inhibition [AhR]
Details: for pIC50: curve of first compound; for viability, T/C: stronger effect = lower value; active means viability on the fitted dose curve at most 10% of control; inactive means the rest
Summary of the method: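 Spheroids combined tumor cells with HUVEC endothelial cells and human MSCs as stroma. AhR antagonists were paired with standard or investigational drugs, each dosed in half-log steps down from near clinical Cmax, or from 10 microM where Cmax was unknown.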
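Wherever viability, T/C is given: compound exposure lasted 7 days; 100% = DMSO vehicle control growth.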

CC(C)CC(NC(=O)C(Cc1ccccc1)NC(=O)c1cnccn1)B(O)O (stereo not given) + Cc1cncc(-c2nc(NCCc3c[nH]c4ccccc34)c3ncn(C(C)C)c3n2)c1
inactive: viability, T/C (second compound 0.1 µM, first compound 0.000949 µM) 96.7% | viability, T/C (second compound 0.1 µM, first compound 0.003 µM) 103% | viability, T/C (second compound 0.1 µM, first compound 0.00949 µM) 13.8% | viability, T/C (second compound 0.316 µM, first compound 0.000949 µM) 101% | viability, T/C (second compound 0.316 µM, first compound 0.003 µM) 113% | viability, T/C (second compound 0.316 µM, first compound 0.00949 µM) 12% | viability, T/C (second compound 1 µM, first compound 0.000949 µM) 106% | viability, T/C (second compound 1 µM, first compound 0.003 µM) 110% | viability, T/C (second compound 1 µM, first compound 0.00949 µM) 13.4% | viability, T/C (second compound 3.16 µM, first compound 0.000949 µM) 103% | viability, T/C (second compound 3.16 µM, first compound 0.003 µM) 105% | viability, T/C (second compound 3.16 µM, first compound 0.00949 µM) 12.7% | viability, T/C (second compound 10 µM, first compound 0.000949 µM) 89.9% | viability, T/C (second compound 10 µM, first compound 0.003 µM) 87.8%
8.29: pIC50 (second compound 10 µM)
active: viability, T/C (second compound 0.1 µM, first compound 0.03 µM) 0.14% | viability, T/C (second compound 0.1 µM, first compound 0.0949 µM) 0.08% | viability, T/C (second compound 0.1 µM, first compound 0.3 µM) 0.23% | viability, T/C (second compound 0.316 µM, first compound 0.03 µM) 1.1% | viability, T/C (second compound 0.316 µM, first compound 0.0949 µM) 0.12% | viability, T/C (second compound 0.316 µM, first compound 0.3 µM) 1.12% | viability, T/C (second compound 1 µM, first compound 0.03 µM) 0.14% | viability, T/C (second compound 1 µM, first compound 0.0949 µM) 0.09% | viability, T/C (second compound 1 µM, first compound 0.3 µM) 0.67% | viability, T/C (second compound 3.16 µM, first compound 0.03 µM) 1.05% | viability, T/C (second compound 3.16 µM, first compound 0.0949 µM) 0.7% | viability, T/C (second compound 3.16 µM, first compound 0.3 µM) 2.06% | viability, T/C (second compound 10 µM, first compound 0.00949 µM) 7.45% | viability, T/C (second compound 10 µM, first compound 0.03 µM) 0.99% | viability, T/C (second compound 10 µM, first compound 0.0949 µM) 0.21% | viability, T/C (second compound 10 µM, first compound 0.3 µM) 1.28%
8.23: pIC50 (second compound 0.1 µM) | pIC50 (second compound 3.16 µM)
8.22: pIC50 (second compound 0.316 µM) | pIC50 (second compound 1 µM)
